Data published in PubChem BioAssay AID256 (DTP/NCI, 2004).
Where “and” joins values, the source holds several entries; their conditions need not be identical. Identical values can stand only once. Inconclusive results and toxic doses are left out. Rule for the calls: active = survival T/C of 150% or more; inactive = T/C below 125% in these data. Non-standard residues stand in square brackets, D forms with d. Residues, ends and D or L forms follow the SMILES beside them. ξ: configuration not given here. *: point of attachment. ξF = NC(Cc1ccccc1)C(=O)O; Cbz = O=C(OCc1ccccc1)*; Nva = CCC[CH](N)C(=O)O

System: CD2F1 mice, L1210 leukemia ip, survival T/C
Test: NCI In Vivo Anticancer Drug Screen. Data for tumor model L1210 Leukemia (intraperitoneal) in CD2F1 (CDF1) mice
Details: higher = longer survival
Procedure, shortened: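 In this screen, transplantable tumors were grown in mice given either the compound or its vehicle. Results were expressed as the treated measurement relative to the control measurement.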

[1] = endpoint: mean survival time, dose: 100.0 mg/kg/injection, schedule: Q01DX009 (ip), vehicle: saline with Tween-80
[2] = endpoint: mean survival time, dose: 100.0 mg/kg/injection, schedule: Q04DX003 (ip), vehicle: saline with Tween-80
[3] = endpoint: mean survival time, dose: 200.0 mg/kg/injection, schedule: Q01DX009 (ip), vehicle: saline with Tween-80
[4] = endpoint: mean survival time, dose: 200.0 mg/kg/injection, schedule: Q04DX003 (ip), vehicle: saline with Tween-80
[5] = endpoint: mean survival time, dose: 400.0 mg/kg/injection, schedule: Q01DX009 (ip), vehicle: saline with Tween-80
[6] = endpoint: mean survival time, dose: 400.0 mg/kg/injection, schedule: Q04DX003 (ip), vehicle: saline with Tween-80
[7] = endpoint: mean survival time, dose: 37.5 mg/kg/injection, schedule: Q01DX009 (ip), vehicle: saline with Tween-80
[8] = endpoint: mean survival time, dose: 75.0 mg/kg/injection, schedule: Q01DX009 (ip), vehicle: saline with Tween-80
[9] = endpoint: mean survival time, dose: 100.0 mg/kg/injection, schedule: Q01DX001 (ip), vehicle: saline with Tween-80
[10] = endpoint: mean survival time, dose: 200.0 mg/kg/injection, schedule: Q01DX001 (ip), vehicle: saline with Tween-80
[11] = endpoint: mean survival time, dose: 100.0 mg/kg/injection, schedule: Q04DX003 (ip), vehicle: saline
[12] = endpoint: mean survival time, dose: 25.0 mg/kg/injection, schedule: Q01DX009 (ip), vehicle: saline with Tween-80
[13] = endpoint: mean survival time, dose: 50.0 mg/kg/injection, schedule: Q01DX009 (ip), vehicle: saline with Tween-80
[14] = endpoint: mean survival time, dose: 200.0 mg/kg/injection, schedule: Q04DX003 (ip), vehicle: saline
[15] = endpoint: mean survival time, dose: 400.0 mg/kg/injection, schedule: Q04DX003 (ip), vehicle: saline

Measured: T/C

CCOC(=O)C(=O)CC(=O)c1ccc(OC)cc1
inactive: [1] 98 % of control | [2] 100 % of control | [3] 96 % of control | [4] 95 % of control | [5] 101 % of control | [6] 95 % of control

Nc1ccc2cc(S(=O)(=O)O)cc(O)c2c1
inactive: [2] 98 % of control | [4] 102 % of control | [6] 98 % of control

Nc1nc(N)c2c(n1)NCN(OCc1c(Cl)cccc1Cl)C2
inactive: endpoint: mean survival time, dose: 0.75 mg/kg/injection, schedule: Q01DX009 (ip), vehicle: water 96 % of control | endpoint: mean survival time, dose: 1.5 mg/kg/injection, schedule: Q01DX009 (ip), vehicle: water 100 % of control | endpoint: mean survival time, dose: 3.0 mg/kg/injection, schedule: Q01DX009 (ip), vehicle: water 102 % of control | endpoint: mean survival time, dose: 6.0 mg/kg/injection, schedule: Q01DX009 (ip), vehicle: water 102 % of control | endpoint: mean survival time, dose: 12.0 mg/kg/injection, schedule: Q01DX009 (ip), vehicle: water 104 % of control | endpoint: mean survival time, dose: 24.0 mg/kg/injection, schedule: Q01DX009 (ip), vehicle: water 100 % of control

N#CSCc1cc(=O)c(O)co1
inactive: endpoint: mean survival time, dose: 6.25 mg/kg/injection, schedule: Q04DX003 (ip), vehicle: saline with Tween-80 104 % of control | endpoint: mean survival time, dose: 12.5 mg/kg/injection, schedule: Q04DX003 (ip), vehicle: saline with Tween-80 94 % of control

CCCCCCCCCCCCN(CN1C(=O)c2ccccc2C1=O)CN1C(=O)c2ccccc2C1=O
inactive: [1] 92 % of control | [5] 86 % of control

N#CC(CCC(=O)O)(CCC(=O)O)c1ccccc1
inactive: [1] 96 % of control | [3] 96 % of control | [5] 96 % of control

CC(=O)CC(C)=NCC(C)N=C(C)CC(C)=O.c1cc[c]([Sn][c]2ccccc2)cc1 (configuration not stated)
inactive: endpoint: mean survival time, dose: 2.5 mg/kg/injection, schedule: Q01DX009 (ip), vehicle: saline with Tween-80 93 % of control | endpoint: mean survival time, dose: 5.0 mg/kg/injection, schedule: Q01DX001 (ip), vehicle: saline with Tween-80 98 % of control | endpoint: mean survival time, dose: 5.0 mg/kg/injection, schedule: Q01DX009 (ip), vehicle: saline with Tween-80 107 % of control | endpoint: mean survival time, dose: 10.0 mg/kg/injection, schedule: Q01DX001 (ip), vehicle: saline with Tween-80 103 % of control

CCCCCCC(C(=O)OCC)P(=O)(OCC)OCC (configuration not stated)
inactive: endpoint: mean survival time, dose: 18.75 mg/kg/injection, schedule: Q01DX009 (ip), vehicle: saline with Tween-80 98 % of control | [7] 96 % of control | [8] 96 % of control | endpoint: mean survival time, dose: 75.0 mg/kg/injection, schedule: Q04DX003 (ip), vehicle: saline with Tween-80 95 % of control

O=C1CC(c2ccccc2)=NO1
inactive: [9] 106 % of control | [10] 101 % of control | endpoint: mean survival time, dose: 400.0 mg/kg/injection, schedule: Q01DX001 (ip), vehicle: saline with Tween-80 101 % of control

CCN(CC)C(=O)c1ccc[n+](Cc2ccc(Cl)cc2)c1
inactive: [11] 102 % of control

Clc1ccc(COC(Cn2ccnc2)c2ccc(Cl)cc2Cl)c(Cl)c1 (configuration not stated)
inactive: [2] 91 % of control | [4] 93 % of control

CCCC(NC(=O)C(C)NC(=O)OCc1ccccc1)C(N)=O (stereo not drawn) (Cbz-Ala-[Nva]-NH2; configuration not given here)
inactive: [1] 90 % of control | [3] 92 % of control | [5] 92 % of control

Cc1ccc(S(=O)(=O)Oc2ccc(Cl)cc2)cc1
inactive: [1] 101 % of control | [3] 98 % of control | [5] 98 % of control

CCC(C=O)Cc1ccccc1 (configuration not stated)
inactive: [2] 95 % of control | [4] 94 % of control | [6] 88 % of control

O=C(c1ccccc1[N+](=O)[O-])C(Br)C(Br)c1ccc(Cl)c(Cl)c1 (configuration not stated)
inactive: [12] 87 % of control and 94 % of control | [13] 100 % of control | endpoint: mean survival time, dose: 50.0 mg/kg/injection, schedule: Q04DX003 (ip), vehicle: saline with Tween-80 90 % of control | [9] 107 % of control | endpoint: mean survival time, dose: 100.0 mg/kg/injection, schedule: Q04DX002 (ip), vehicle: saline with Tween-80 89 % of control and 100 % of control | [2] 87 % of control | [10] 95 % of control | endpoint: mean survival time, dose: 200.0 mg/kg/injection, schedule: Q04DX002 (ip), vehicle: saline with Tween-80 86 % of control and 96 % of control | [4] 90 % of control | endpoint: mean survival time, dose: 400.0 mg/kg/injection, schedule: Q04DX002 (ip), vehicle: saline with Tween-80 86 % of control and 90 % of control

NC/C(=N\Nc1ccc([N+](=O)[O-])cc1[N+](=O)[O-])c1ccccc1
inactive: [11] 103 % of control | [14] 100 % of control | [15] 97 % of control

CCCCCCCCCCCCCCCCOS(=O)(=O)O
inactive: endpoint: mean survival time, dose: 37.5 mg/kg/injection, schedule: Q01DX009 (ip), vehicle: saline 98 % of control | endpoint: mean survival time, dose: 75.0 mg/kg/injection, schedule: Q01DX009 (ip), vehicle: saline 97 % of control | endpoint: mean survival time, dose: 150.0 mg/kg/injection, schedule: Q01DX009 (ip), vehicle: saline 98 % of control

CC(O)CNC1CCCCC1 (configuration not stated)
inactive: [12] 97 % of control | [13] 97 % of control | [1] 97 % of control

NC(=O)C(Cc1ccccc1)NC(=O)CNC(=O)CNC(=O)OCc1ccccc1 (stereo not drawn) (Cbz-Gly-Gly-[ξF]-NH2)
inactive: [2] 97 % of control | [4] 96 % of control | [6] 99 % of control

Cc1cccc(C)c1N=C(NO)c1ccccc1
inactive: endpoint: mean survival time, dose: 100.0 mg/kg/injection, schedule: Q01DX001 (ip), vehicle: saline 102 % of control | [11] 106 % of control | endpoint: mean survival time, dose: 200.0 mg/kg/injection, schedule: Q01DX001 (ip), vehicle: saline 100 % of control | [14] 112 % of control | endpoint: mean survival time, dose: 400.0 mg/kg/injection, schedule: Q01DX001 (ip), vehicle: saline 90 % of control | [15] 100 % of control

NC1(C(=O)O)CCCC1
inactive: endpoint: mean survival time, dose: 50.0 mg/kg/injection, schedule: Q01DX009 (ip), vehicle: saline 98 % of control and 110 % of control | endpoint: mean survival time, dose: 50.0 mg/kg/injection, schedule: Q03DX003 (ip), vehicle: saline 110 % of control | endpoint: mean survival time, dose: 50.0 mg/kg/injection, schedule: Q04DX003 (ip), vehicle: saline 96 % of control | endpoint: mean survival time, dose: 100.0 mg/kg/injection, schedule: Q03DX003 (ip), vehicle: saline 98 % of control | endpoint: mean survival time, dose: 200.0 mg/kg/injection, schedule: Q01DX009 (ip), vehicle: saline 92 % of control and 110 % of control

NC(=S)N/N=C/c1cc(-c2cccc(N)c2)ccn1
inactive: endpoint: mean survival time, dose: 6.25 mg/kg/injection, schedule: Q01DX009 (ip), vehicle: saline with Tween-80 113 % of control | endpoint: mean survival time, dose: 9.4 mg/kg/injection, schedule: Q01DX009 (ip), vehicle: saline with Tween-80 116 % of control and 104 % of control | endpoint: mean survival time, dose: 12.5 mg/kg/injection, schedule: Q01DX009 (ip), vehicle: saline with Tween-80 115 % of control | endpoint: mean survival time, dose: 18.8 mg/kg/injection, schedule: Q01DX009 (ip), vehicle: saline with Tween-80 115 % of control and 118 % of control | [12] 123 % of control | [7] 115 % of control and 119 % of control | [8] 89 % of control and 104 % of control and 107 % of control

O=C(CNC(=O)OCc1ccccc1)NCC(=O)NC(Cc1ccccc1)C(=O)O (stereo not drawn) (Cbz-Gly-Gly-[ξF]-OH)
inactive: [2] 96 % of control | [4] 93 % of control | [6] 93 % of control

O=C(/C=C/c1ccccc1)N/N=C/c1ccccc1Cl
inactive: endpoint: mean survival time, dose: 50.0 mg/kg/injection, schedule: Q01DX009 (ip), vehicle: Klucel (hydroxypropylcellulose) (HPC) 105 % of control | endpoint: mean survival time, dose: 100.0 mg/kg/injection, schedule: Q01DX009 (ip), vehicle: Klucel (hydroxypropylcellulose) (HPC) 105 % of control | endpoint: mean survival time, dose: 200.0 mg/kg/injection, schedule: Q01DX009 (ip), vehicle: Klucel (hydroxypropylcellulose) (HPC) 105 % of control

Cc1cc(=O)n2c3c(c4c(cc13)c(CN(C)C)cc(=O)n4C)OC2
inactive: endpoint: median survival time, dose: 6.0 mg/kg/injection, schedule: Q01DX009 (ip), vehicle: saline with Tween-80 110 % of control | endpoint: median survival time, dose: 12.0 mg/kg/injection, schedule: Q01DX009 (ip), vehicle: saline with Tween-80 101 % of control | endpoint: median survival time, dose: 12.5 mg/kg/injection, schedule: Q01DX009 (ip), vehicle: saline with Tween-80 100 % of control | endpoint: median survival time, dose: 25.0 mg/kg/injection, schedule: Q01DX009 (ip), vehicle: saline with Tween-80 119 % of control and 110 % of control | endpoint: median survival time, dose: 100.0 mg/kg/injection, schedule: Q01DX009 (ip), vehicle: saline with Tween-80 97 % of control

O=C(O)C(O)CO.O=C(O)C(O)CO.[NH-]C1CCCCC1[NH-].[Pt+2] (configuration not stated)
inactive: endpoint: mean survival time, dose: 2.5 mg/kg/injection, schedule: Q04DX003 (ip), vehicle: other 124 % of control
